# According to patent US9359349B2, “Substituted quinazolines as kinase inhibitors” (Intellikine LLC, priority 2007, dated 2016):
# Read-outs that look alike come from different tables or passages of the source.
# How the values were obtained:
# PI3K γ (p110γ) = target: T1, PI3K γ (p110γ) (Homo sapiens, UniProt P48736); test: PI3K γ (p110γ) inhibition assay; type: biochemical
# T1 construct: purchased Sigma
# Procedure: (§1) Class I PI3-Ks can be either purchased (p110α/p85α, p110β/p85α, p110δ/p85α from Upstate, and p110γ from Sigma) or expressed as previously described (Knight at al., 2004). IC50 values are measured using either a standard TLC assay for lipid kinase activity (described below) or a high-throughput membrane capture assay. Kinase reactions are performed by preparing a reaction mixture containing kinase, inhibitor (2% DMSO final concentration), buffer (25 mM HEPES, pH 7.4, 10 mM MgCl2), and freshly sonicated phosphatidylinositol (100 μg/ml). Reactions are initiated by the addition of ATP containing 10 μCi of γ-32P-ATP to a final concentration 10 or 100 μM and allowed to proceed for 5 minutes at room temperature. For TLC analysis, reactions are then terminated by the addition of 105 μl 1N HCl followed by 160 μl CHCl3:MeOH (1:1). The biphasic mixture is vortexed, briefly centrifuged, and the organic phase is transferred to a new tube using a gel loading pipette tip precoated with CHCl3. This extract is spotted on TLC plates and developed for 3-4 hours in a 65:35 solution of n-propanol: 1M acetic acid. The TLC plates are then dried, exposed to a phosphorimager screen (Storm, Amersham), and quantitated. For each compound, kinase activity is measured at 10-12 inhibitor concentrations representing two-fold dilutions from the highest concentration tested (typically, 200 μM).
# (§2) Other commercial kits or systems for assaying PI3-K activities are avaiable. The commercially available kits or systems can be used to screen for inhibitors and/or agonists of PI3-Ks including but not limited to PI 3-Kinase α, β, δ, and γ. Anr exemplary system is PI 3-Kinase (human) HTRF™ Assay from Upstate. […] Briefly, the assay is a time resolved FRET assay that indirectly measures PIP3 product formed by the activity of a PI3-K. The kinase reaction is performed in a microtitre plate (e.g., a 384 well microtitre plate). The total reaction volume is approximately 20 ul per well. In the first step, each well receives 2 ul of test compound in 20% dimethylsulphoxide resulting in a 2% DMSO final concentration. Next, approximately 14.5 ul of a kinase/PIP2 mixture (diluted in 1× reaction buffer) is added per well for a final concentration of 0.25-0.3 ug/ml kinase and 10 uM PIP2. The plate is sealed and incubated for 15 minutes at room temperature. To start the reaction, 3.5 ul of ATP (diluted in 1× reaction buffer) is added per well for a final concentration of 10 uM ATP. The plate is sealed and incubated for 1 hour at room temperature. The reaction is stopped by adding 5 ul of Stop Solution per well and then 5 ul of Detection Mix is added per well. The plate is sealed, incubated for 1 hour at room temperature, and then read on an appropriate plate reader. Data is analyzed and IC50s are generated using GraphPad Prism 5.
# PI3K δ (p110δ/p85α) = target: T2, PI3K δ (p110δ/p85α) (Homo sapiens, UniProt O00329); test: PI3K δ (p110δ/p85α) inhibition assay; type: biochemical
# T2 construct: purchased Upstate
# T2 sequence (O00329 whole entry): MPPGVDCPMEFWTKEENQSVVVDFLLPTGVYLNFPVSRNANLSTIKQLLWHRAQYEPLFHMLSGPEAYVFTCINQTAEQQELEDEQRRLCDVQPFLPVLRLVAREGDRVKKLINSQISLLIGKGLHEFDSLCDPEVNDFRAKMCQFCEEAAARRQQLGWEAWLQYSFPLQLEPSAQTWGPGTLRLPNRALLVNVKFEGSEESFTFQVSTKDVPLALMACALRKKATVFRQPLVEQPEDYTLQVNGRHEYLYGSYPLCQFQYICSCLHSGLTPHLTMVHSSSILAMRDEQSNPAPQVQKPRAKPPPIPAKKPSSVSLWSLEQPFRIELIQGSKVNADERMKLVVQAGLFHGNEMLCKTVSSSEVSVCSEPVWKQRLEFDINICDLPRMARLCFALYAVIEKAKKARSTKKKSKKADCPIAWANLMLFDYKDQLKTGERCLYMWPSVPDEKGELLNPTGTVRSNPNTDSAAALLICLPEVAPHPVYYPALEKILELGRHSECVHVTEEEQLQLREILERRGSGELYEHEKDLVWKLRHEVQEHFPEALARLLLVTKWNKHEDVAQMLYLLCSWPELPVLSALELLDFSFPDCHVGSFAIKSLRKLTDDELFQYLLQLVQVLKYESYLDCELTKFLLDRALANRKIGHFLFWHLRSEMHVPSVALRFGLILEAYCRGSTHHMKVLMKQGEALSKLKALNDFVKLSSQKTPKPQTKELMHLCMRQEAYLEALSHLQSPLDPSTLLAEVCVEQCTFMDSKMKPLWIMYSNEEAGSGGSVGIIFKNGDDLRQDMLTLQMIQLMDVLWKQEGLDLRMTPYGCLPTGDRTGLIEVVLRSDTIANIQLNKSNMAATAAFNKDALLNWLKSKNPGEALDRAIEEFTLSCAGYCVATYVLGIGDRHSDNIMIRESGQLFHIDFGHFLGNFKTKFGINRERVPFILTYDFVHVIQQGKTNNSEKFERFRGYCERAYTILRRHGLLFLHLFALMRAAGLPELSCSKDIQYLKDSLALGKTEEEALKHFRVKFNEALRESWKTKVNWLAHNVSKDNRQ
# T2 sequence (P27986 whole entry partner): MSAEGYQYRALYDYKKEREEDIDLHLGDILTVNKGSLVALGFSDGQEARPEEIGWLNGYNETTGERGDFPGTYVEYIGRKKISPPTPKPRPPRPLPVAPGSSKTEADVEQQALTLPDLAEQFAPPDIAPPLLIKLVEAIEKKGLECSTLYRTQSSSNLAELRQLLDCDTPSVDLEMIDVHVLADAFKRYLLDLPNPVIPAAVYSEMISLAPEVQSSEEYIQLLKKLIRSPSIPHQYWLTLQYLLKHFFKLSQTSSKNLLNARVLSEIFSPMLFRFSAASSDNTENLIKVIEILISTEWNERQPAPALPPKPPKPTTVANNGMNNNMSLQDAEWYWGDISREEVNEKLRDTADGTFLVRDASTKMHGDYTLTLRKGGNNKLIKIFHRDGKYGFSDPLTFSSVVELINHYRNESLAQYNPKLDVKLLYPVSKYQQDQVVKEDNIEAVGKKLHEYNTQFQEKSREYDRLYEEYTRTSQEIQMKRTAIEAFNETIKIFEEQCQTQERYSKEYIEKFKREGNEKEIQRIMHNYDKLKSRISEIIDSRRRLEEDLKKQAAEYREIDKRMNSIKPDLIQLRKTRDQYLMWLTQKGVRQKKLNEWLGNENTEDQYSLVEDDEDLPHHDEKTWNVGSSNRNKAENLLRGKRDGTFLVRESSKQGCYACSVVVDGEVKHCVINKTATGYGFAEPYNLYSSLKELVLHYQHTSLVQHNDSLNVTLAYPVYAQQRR
# Procedure: as §1, with “IC50” for “Class I PI3-Ks can be either purchased (p110α/p85α, p110β/p85α, p110δ/p85α from Upstate, and p110γ from Sigma) or expressed as previously described (Knight at al., 2004). IC50”, “quantitated.” for “quantitated. For each compound, kinase activity is measured at 10-12 inhibitor concentrations representing two-fold dilutions from the highest concentration tested (typically, 200 μM).”
# as §2
# PI3K α (p110α/p85α) = target: T3, PI3K α (p110α/p85α) (Homo sapiens, UniProt P42336); test: PI3K α (p110α/p85α) inhibition assay; type: biochemical
# T3 construct: purchased Upstate
# Procedure: as §1, §2
# PI3K β (p110β/p85α) = target: T4, PI3K β (p110β/p85α) (Homo sapiens, UniProt P42338); test: PI3K β (p110β/p85α) inhibition assay; type: biochemical
# T4 construct: purchased Upstate
# T4 sequence (P42338 whole entry): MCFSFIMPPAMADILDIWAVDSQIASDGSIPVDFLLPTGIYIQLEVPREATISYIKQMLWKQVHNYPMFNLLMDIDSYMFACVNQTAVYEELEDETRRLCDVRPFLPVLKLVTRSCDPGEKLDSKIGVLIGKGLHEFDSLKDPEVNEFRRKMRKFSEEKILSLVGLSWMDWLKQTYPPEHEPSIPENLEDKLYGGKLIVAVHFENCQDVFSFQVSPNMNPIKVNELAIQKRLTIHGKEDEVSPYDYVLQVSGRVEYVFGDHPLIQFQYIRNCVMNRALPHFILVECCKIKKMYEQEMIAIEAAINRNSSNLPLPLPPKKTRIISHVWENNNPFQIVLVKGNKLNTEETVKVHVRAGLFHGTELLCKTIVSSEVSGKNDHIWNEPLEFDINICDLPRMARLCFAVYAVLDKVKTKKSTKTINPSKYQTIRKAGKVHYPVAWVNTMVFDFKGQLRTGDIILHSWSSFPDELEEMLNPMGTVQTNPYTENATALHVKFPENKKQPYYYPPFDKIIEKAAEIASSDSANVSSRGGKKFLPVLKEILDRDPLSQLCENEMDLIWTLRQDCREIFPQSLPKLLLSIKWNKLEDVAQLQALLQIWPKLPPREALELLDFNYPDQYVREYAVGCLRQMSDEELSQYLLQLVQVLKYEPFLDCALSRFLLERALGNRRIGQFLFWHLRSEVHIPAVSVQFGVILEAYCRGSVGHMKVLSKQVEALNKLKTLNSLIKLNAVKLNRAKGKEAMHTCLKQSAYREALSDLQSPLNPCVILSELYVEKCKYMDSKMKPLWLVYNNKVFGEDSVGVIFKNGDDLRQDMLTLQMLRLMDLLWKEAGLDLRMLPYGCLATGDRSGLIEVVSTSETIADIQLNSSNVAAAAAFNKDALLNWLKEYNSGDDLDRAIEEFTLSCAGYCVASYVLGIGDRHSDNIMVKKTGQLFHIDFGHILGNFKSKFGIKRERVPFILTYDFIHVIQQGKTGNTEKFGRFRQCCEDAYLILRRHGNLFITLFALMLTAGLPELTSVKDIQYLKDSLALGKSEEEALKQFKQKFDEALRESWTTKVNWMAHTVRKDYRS
# T4 sequence (P27986 whole entry partner): as the sequence (P27986 whole entry partner) above
# Procedure: as §1, §2
# mTOR = target: T5, mTOR (Homo sapiens, UniProt P42345); test: mTOR inhibition assay; type: biochemical
# T5 construct: purchased Invitrogen
# T5 sequence (P42345 1360-2549 limits assumed): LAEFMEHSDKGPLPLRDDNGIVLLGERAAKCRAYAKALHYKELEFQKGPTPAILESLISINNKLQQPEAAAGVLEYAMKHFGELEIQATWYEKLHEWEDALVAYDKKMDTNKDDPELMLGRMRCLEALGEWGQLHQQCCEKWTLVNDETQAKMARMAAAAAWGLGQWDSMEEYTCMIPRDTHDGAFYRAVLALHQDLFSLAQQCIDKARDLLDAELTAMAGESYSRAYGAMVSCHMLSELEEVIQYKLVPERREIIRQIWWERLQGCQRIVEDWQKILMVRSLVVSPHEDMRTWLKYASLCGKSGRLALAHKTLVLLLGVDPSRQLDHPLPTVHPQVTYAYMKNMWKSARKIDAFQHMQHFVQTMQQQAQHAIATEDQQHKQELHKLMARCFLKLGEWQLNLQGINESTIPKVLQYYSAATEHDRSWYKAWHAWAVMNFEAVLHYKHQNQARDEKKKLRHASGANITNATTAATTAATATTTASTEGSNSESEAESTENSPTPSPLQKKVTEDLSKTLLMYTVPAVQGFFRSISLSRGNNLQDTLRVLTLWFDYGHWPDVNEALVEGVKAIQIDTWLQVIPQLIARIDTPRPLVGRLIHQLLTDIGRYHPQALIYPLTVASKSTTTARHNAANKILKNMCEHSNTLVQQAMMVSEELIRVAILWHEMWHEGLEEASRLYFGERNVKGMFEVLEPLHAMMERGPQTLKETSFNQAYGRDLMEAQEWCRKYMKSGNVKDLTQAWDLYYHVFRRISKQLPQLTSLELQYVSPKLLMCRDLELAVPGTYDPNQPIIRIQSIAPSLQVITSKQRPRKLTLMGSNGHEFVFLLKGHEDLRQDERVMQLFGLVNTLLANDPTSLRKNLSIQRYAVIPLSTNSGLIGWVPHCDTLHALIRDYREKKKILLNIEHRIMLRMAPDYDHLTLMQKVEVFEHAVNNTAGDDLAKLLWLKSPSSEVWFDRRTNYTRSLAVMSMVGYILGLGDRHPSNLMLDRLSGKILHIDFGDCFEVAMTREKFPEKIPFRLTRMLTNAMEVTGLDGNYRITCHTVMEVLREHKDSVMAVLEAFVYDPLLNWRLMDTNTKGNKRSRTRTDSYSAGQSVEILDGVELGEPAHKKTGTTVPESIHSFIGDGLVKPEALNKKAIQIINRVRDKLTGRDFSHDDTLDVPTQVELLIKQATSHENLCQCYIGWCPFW
# Procedure: The compounds described herein can be tested against recombinant mTOR (Invitrogen) in an assay containing 50 mM HEPES, pH 7.5, 1 mM EGTA, 10 mM MgCl2, 2.5 mM, 0.01% Tween, 10 μM ATP (2.5 μCi of […]), and 3 μg/mL BSA. Rat recombinant PHAS-1/4EBP1 (Calbiochem; 2 mg/mL) is used as a substrate. Reactions are terminated by spotting onto nitrocellulose, which is washed with 1M NaCl/1% phosphoric acid (approximately 6 times, 5-10 minutes each). Sheets are dried and the transferred radioactivity quantitated by phosphorimaging.
# Other kits or systems for assaying mTOR activity are commercially avaiable. For instance, one can use Invitrogen's LanthaScreen™ Kinase assay to test the inhibitors of mTOR disclosed herein. This assay is a time resolved FRET platform that measures the phosphorylation of GFP labeled 4EBP1 by mTOR kinase. The kinase reaction is performed in a white 384 well microtitre plate. The total reaction volume is 20 ul per well and the reaction buffer composition is 50 mM HEPES pH7.5, 0.01% Polysorbate 20, 1 mM EGTA, 10 mM MnCl2, and 2 mM DTT. In the first step, each well receives 2 ul of test compound in 20% dimethylsulphoxide resulting in a 2% DMSO final concentration. Next, 8 ul of mTOR diluted in reaction buffer is added per well for a 60 ng/ml final concentration. To start the reaction, 10 ul of an ATP/GFP-4EBP1 mixture (diluted in reaction buffer) is added per well for a final concentration of 10 uM ATP and 0.5 uM GFP-4EBP1. The plate is sealed and incubated for 1 hour at room temperature. The reaction is stopped by adding 10 ul per well of a Tb-anti-pT46 4EBP1 antibody/EDTA mixture (diluted in TR-FRET buffer) for a final concentration of 1.3 nM antibody and 6.7 mM EDTA. The plate is sealed, incubated for 1 hour at room temperature, and then read on a plate reader set up for LanthaScreen™ TR-FRET. Data is analyzed and IC50s are generated using GraphPad Prism 5.
# PC-3 = test: Tumor cell line proliferation assay (Alamar Blue), PC-3; type: cell-based; conditions: Homo sapiens; PC-3 cells
# Procedure: The ability of one or more subject compounds to inhibit tumor cell line proliferation is determined according to standard procedures known in the art. For instance, an in vitro cellular proliferation assay can be performed to measure the metabolic activity of live cells. The assay is performed in a 96 well microtiter plate using Alamar Blue reduction. Human tumor cell lines are obtained from ATCC (e.g., MCF7, U-87 MG, MDA-MB-468, PC-3), grown to confluency in T75 flasks, trypsinized with 0.25% trypsin, washed one time with Tumor Cell Media (DMEM+10% FBS), and plated in 90 ul at 5,000 cells/well in Tumor Cell Media. A compound disclosed herein is diluted in Tumor Cell Media and added in a 10 ul volume. Plates are incubated for 72 hours at 37 C and 5% CO2. A volume of 10 uL of Alamar Blue reagent is added to each well and plates are incubated for 3 hours at 37 C and 5% CO2. Alamar Blue fluoresce is read at 560Ex/590Em, and IC50 values are calculated using GraphPad Prism 5.
Structure (SMILES),IC50 (PI3K γ (p110γ)) [µM],IC50 (PI3K δ (p110δ/p85α); read-out: PI3K δ IC50) [µM],IC50 (PI3K α (p110α/p85α)) [µM],IC50 (PI3K β (p110β/p85α)) [µM],IC50 (mTOR) [µM],EC50 (PC-3) [µM],IC50 (PI3K δ (p110δ/p85α)) [µM]
CNc1nc(C)c2cc(-c3cccc(O)c3)ccc2n1 [Compound 1],< 0.1,< 0.5,< 0.5,> 1,> 1,≤ 50,–
CNc1nc(C)c2cc(-c3cnc4[nH]ccc4c3)ccc2n1 [Compound 2],< 0.5,> 1,< 1,> 1,> 1,≤ 50,–
Nc1ncc2cc(-c3cccc(O)c3)ccc2n1 [Compound 3],–,–,< 0.5,–,> 1,≤ 50,–
Cc1nc(N)nc2ccc(-c3cccc(O)c3)cc12 [Compound 4],< 0.1,< 0.1,< 0.5,< 0.5,> 1,≤ 20,–
Cc1nc(N)nc2ccc(-c3cnc4[nH]ccc4c3)cc12 [Compound 5],–,–,< 1,–,> 1,≤ 50,–
Cc1nc(Nc2cccnc2)nc2ccc(-c3cccc(O)c3)cc12 [Compound 6],< 0.1,< 0.1,< 0.1,> 1,> 1,≤ 50,–
Cc1nc(Nc2cccnc2)nc2ccc(-c3cc(O)cc(F)c3)cc12 [Compound 7],< 0.1,< 0.1,< 0.1,> 1,> 1,≤ 20,–
CNc1nc(C)c2cc(-c3cc(O)cc(F)c3)ccc2n1 [Compound 8],< 0.1,–,< 0.5,< 1,> 1,≤ 20,< 0.1
CNc1nc(C)c2cc(-c3ccc(F)c(O)c3)ccc2n1 [Compound 9],–,–,< 1,–,> 1,≤ 20,–
CNc1nc(C)c2cc(-c3ccc(O)c(Cl)c3)ccc2n1 [Compound 10],–,–,< 1,–,> 1,≤ 20,–
CNc1nc(C)c2cc(-c3ccc(O)c(F)c3)ccc2n1 [Compound 11],–,–,< 1,–,> 1,≤ 50,–
